What is called IC50 is the point on the concentration scale where inhibition reaches its midpoint. As a reminder, the AUC(0-t) is the area under the concentration-time curve up to a stated or last time point. Lower therefore signals low exposure. Broadly, the Cmax is the peak of the concentration-time curve. As usually defined, the half-life is how long it takes for the measured level to halve.

Data set [1] relates to BRCA1-mutated MDA-MB-436 cells. In words: Proliferation inhibitory test of BRCA1-mutated MDA-MB-436 cells (CCK-8). Type of data set: cell-based. The note with it: Homo sapiens, 120 h, 5 days, read-out: IC50 (nM), inhibitory activity against BRCA1-mutated MDA-MB-436 cells. As to the method:
CCK-8 was used to measure the content of mitochondrial dehydrogenase in cells at different drug concentrations, and the luminescence intensity was used to reflect the cell activity. The IC50 values of different compounds on BRCA1-mutated MDA-MB-436 cells were calculated using the survival rate, and the proliferation inhibitory effect of the compounds of the present disclosure on BRCA1-mutated MDA-MB-436 cells was studied to evaluate the anti-tumor efficacy of the test compounds at the cellular level.
(§1) On Day −1, the cells were inoculated into the 96-well cell culture plate at a fixed cell density and then placed in the 5% CO2 cell incubator for culture overnight at 37° C.
(§2) On Day 0, the compound to be tested was prepared into a 10 mM stock solution and diluted into 9 concentration points at the concentration of 1,000 nM, 300 nM, 100 nM, 30 nM, 10 nM, 3 nM, 1 nM, 0.3 nM and 0.1 nM in two duplicated wells. A fixed volume of the diluted compound was added to the 96-well cell culture plate and then placed in the 5% CO2 cell incubator for culture at 37° C. for 5 days.
(§3) On Day 5, a fixed volume of CCK-8 was added to the 96-well cell culture plate and incubated in the 5% CO2 cell incubator at 37° C. for 1.5 h, and the plate was read by a chemiluminescence module of the multifunctional microplate reader.
With the logarithmic value of the concentration as an X axis and the survival percentage as a Y axis, a dose-effect curve was fitted by using a log(inhibitor) vs. response-Variable slop (Four parameters) formula of the analysis software Graphpad Prism 9, thereby obtaining the IC50 value of the anti-proliferation inhibitory activity of each compound against BRCA1-mutated MDA-MB-436 cells.

Data set [2] relates to BRCA1-mutated HCC1395 cells. In words: Proliferation inhibitory test of BRCA1-mutated HCC1395 cells (CCK-8). Format: cell-based. The settings on record: Homo sapiens, 120 h, 5 days, read-out: IC50 (nM), inhibitory activity against BRCA1-mutated HCC1395 cells. As to the method: CCK-8 was used to measure the content of mitochondrial dehydrogenase in cells at different drug concentrations, and the luminescence intensity was used to reflect the cell activity. The IC50 values of different compounds on BRCA1-mutated HCC1395 cells were calculated using the survival rate, and the proliferation inhibitory effect of the compounds of the present disclosure on BRCA1-mutated HCC1395 cells was studied to evaluate the anti-tumor efficacy of the test compounds at the cellular level.
as §1, §2, §3
With the logarithmic value of the concentration as an X axis and the survival percentage as a Y axis, a dose-effect curve was fitted by using a log(inhibitor) vs. response-Variable slop (Four parameters) formula of the analysis software Graphpad Prism 9, thereby obtaining the IC50 value of the anti-proliferation inhibitory activity of each compound against BRCA1-mutated HCC1395 cells.

A short description of data set [3]: Study on pharmacokinetics of rats (oral gavage, plasma LC-MS/MS). The note with it: female SD rats, po. 3 mg/kg; for AUC(0-t) / Cmax / half-life: rat. Type of data set: in vivo. The method, then: With SD rats as test animals, the plasma concentration in the plasma of rats at different time points after oral administration of the compounds of the present application was determined by an LC-MS/MS method. Pharmacokinetic parameters of the compounds of the present application in rats were obtained to study pharmacokinetic characteristics.
SD rats, female, body weight 180-220 g, 3 rats per group. After being purchased, the animals were fed in an animal house for an adaptation period of at least 3 days and then used for testing after passing quarantine.
3.1. Grouping: The SD rats were randomly grouped according to Table 4, which had no statistical difference in the body weight between groups after grouping.
3.2. Vehicle: 10% DMSO and 90% (20% SBE-β-CD in saline).
According to Table 4, each compound was prepared into a clear solution with the vehicle, respectively, and each group was administered by gavage with the corresponding test drug. Before administration, and at 15 min, 30 min, 1 h, 2 h, 4 h, 6 h, 8 h and 24 h after the administration, a fixed volume of blood was collected through sinuses jugularis, placed in an EDTA-K2 anticoagulant tube, and centrifuged at 4,000 rpm for 10 min to separate the plasma in a centrifuge tube. The plasma was frozen in a refrigerator at −80° C.
The plasma stored at −80° C. at each time point was taken out, and a fixed volume of acetonitrile was added thereto. After being vortexed at 1,500 rpm for 2 min, it was centrifuged for 15 min (3,500 r/min). A fixed volume of solution supernatant was taken for LC-MS/MS analysis.
The pharmacokinetic behaviors of the test compounds were fitted with a non-compartmental model, and the main pharmacokinetic parameters were calculated using DAS3.31 software.

With `Cc1nc(C(=O)NC2CC2)ccc1N1CCN(Cc2cc(F)c3nc(C)c(=O)[nH]c3c2)CC1` [Compound 55, N-cyclopropyl-5-(4-((8-fluoro-2-methyl-3-oxo-3,4-dihydroquinoxalin-6-yl)methyl)piperazin-1-yl)-6-methylpicolinamide], the IC50 in data set [1] came to 2.2 nM. In addition, the IC50 in data set [2] was found to be 2.56 nM. In data set [3], this compound gave a Cl_F_obs of 2.33 mL/min/kg, an AUC(0-t) of 21300 ng·h/mL, a Cmax of 2210 ng/mL and a half-life of 6.26 h.

In the case of `CCc1nc2c(F)cc(CN3CCN(c4ccc(C(=O)NC)nc4C)CC3)cc2[nH]c1=O` [Compound 32, 5-(4-((2-ethyl-8-fluoro-3-oxo-3,4-dihydroquinoxalin-6-yl)methyl)piperazin-1-yl)-N,6-dimethylpicolinamide], in data set [1], the half-maximal inhibitory concentration (IC50) turned out to be 5.24 nM. Moreover, the IC50 in data set [2] amounted to 1.82 nM. In data set [3], this compound had a Cl_F_obs of 0.83 mL/min/kg, an exposure AUC(0-t) of 50600 ng·h/mL, a peak concentration (Cmax) of 7180 ng/mL and a half-life of 7.39 h.

For the compound `CNC(=O)c1ccc(N2CCN(Cc3ccc4nc(C)c(=O)[nH]c4c3F)CC2)c(F)n1` [AZD9574, reference compound], the concentration for half-maximal inhibition (IC50) in data set [1] is 21.8 nM. The IC50 in data set [2] came out at 9.93 nM. Also, in data set [3], the Cl_F_obs turned out to be 6.17 mL/min/kg, the AUC(0-t) was determined as 6460 ng·h/mL, the concentration peaked (Cmax) at 702 ng/mL and the half-life was 6.06 h.
